Laboratory results reported in article PMC10770036, “Novel dual inhibitors of PARP and HDAC induce intratumoral STING-mediated antitumor immunity in triple-negative breast cancer” (Cell Death & Disease, 2024).

System: MDA-MB-436, MDA-MB-231, and 4T1 cell-derived xenografts
Test: Antitumor effect in tumor-bearing mice
Type: in vivo
Settings: B102 15 mg/kg or B302 50 mg/kg, intraperitoneal, once daily, versus vehicle
Text: MDA-MB-436, MDA-MB-231, and 4T1 cells were orthotopically injected into the fat pads of 6- to 7-week-old female NOD-Prkdc^scid Il2rg^em1Smoc (M-NSG), BALB/c nude and BALB/c mice, respectively. Fourteen 6-week-old female MMTV-PyMT mice were divided into two groups. The […] in each group were littermates. All animal procedures were approved by the Institutional Animal Care and Use Committee at Shenzhen University.
MDA-MB-436 cells (5 × 10^6) were suspended in PBS and Matrigel (Corning) at a 1:1 ratio and orthotopically injected into the fat pads of 6- to 7-week-old female NOD-Prkdc^scid Il2rg^em1Smoc (M-NSG) mice from the Shanghai Model Organisms Center, Inc. MDA-MB-231 cells (5 × 10^6) were suspended in PBS orthotopically injected into the fat pads of 6- to 7-week-old female BALB/c nude mice from the Shanghai Model Organisms Center, Inc. 4T1 cells (1 × 10^6) were suspended in PBS and injected into the fat pads of 6- to 7-week-old […] BALB/c mice from GemPharmatech Co., Ltd. When the tumor size reached 100 mm^3, the mice were randomly divided into three treatment groups without blinding: B102 (15 mg/kg), B302 (50 mg/kg) or vehicle [10% N,N-dimethylacetamide (DMAC, Sangon Biotech) and 6% polyethylene glycol 12-hydroxystearate (Solutol HS-15, MedChem Express, Monmouth Junction, NJ, USA) in saline] treatment via an intraperitoneal injection once daily. […]

`Nc1cc(F)ccc1NC(=O)/C=C/c1ccc(CN2CCN(C(=O)c3cc(Cc4n[nH]c(=O)c5ccccc45)ccc3F)CC2)cc1` [Compound B102] was tested, and the tumor growth was “robust inhibition of tumor growth at low doses”.
